Literature values as cited in patent US20110064803A1, “NANOPARTICULATE AND CONTROLLED RELEASE COMPOSITIONS COMPRISING VITAMIN K2” (ELAN PHARMA INTERNATIONAL LIMITED., priority 2005, published 2011).
Read-outs that look alike come from different tables or passages of the source.

Columns and labels:
[1] = not given; remark: listed apart in the source
[2] = oral

Compound	Solubility in ethanol (99.5) (ethanol (99.5))	Solubility in hexane (hexane)	Solubility in methanol (methanol)	Solubility in water (water)	Stability to light [1]	Persistence of drug effects ([2]; conventional IR tablets)	Persistence of drug effects ([2]; extended release formulations)
CC(C)=CCC/C(C)=C/CC/C(C)=C/CC/C(C)=C/CC1=C(C)C(=O)c2ccccc2C1=O [Vitamin K2]	soluble	very soluble	slightly soluble	practically insoluble	decomposes and the color becomes more intense by light		
COC(=O)C(c1ccccc1)C1CCCCN1 (stereo not drawn) [methylphenidate, α-phenyl-2-piperidine acetic acid methyl ester]						3 to 6 h	up to 8 hours
